We go through eight molecules from patent US9028856B2, “Synergistic pesticide compositions” (priority 2008, dated 2015).

Series [1] has as its system Argentine ant, Linepithema humile. In words: Knockdown/mortality of ant workers under continuous exposure on treated glazed tile. Conditions: glazed tile. The gist of the method:
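0.5% AI imidacloprid in acetone, alone or with 0.1, 1.0 or 5.0% additive (benzenepropanoic acid, oleic acid, methyl oleate, methyl linoleate, methyl palmitate or BHA), 1 ml dried overnight on glazed tile (~161 cm^2). Ten workers confined under continuous exposure, water from 3 h; knockdown/mortality scored at intervals and 24 h; ≥3 replicates.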

Series [2] relates to Culex quinquefasciatus mosquito. The experiment in a line: USDA Petri Dish Method, 3 min exposure to treated glazed tile (twenty 4-6 day old females). Format: in vivo. To be noted: Table 50, fipronil/adjuvant in acetone, glazed tile, 3 min exposure. The procedure, abridged:
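Twenty 4-6 day old female Culex quinquefasciatus exposed 3 minutes to overnight-dried acetone-applied treatment, then moved to untreated card; at least three replicates. Knockdown scored at intervals over 1–3 hours, sucrose provided, mortality at 24 hours.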

For series [3], the system named is Musca domestica, resistant strain Reichswald. The experiment in a line: Efficacy of formulations on surfaces (glazed/unglazed tiles), house flies, continuous exposure. The class given is in vivo. To be noted: for % KD and Mortality 15′ / % KD and Mortality 30′ / % KD and Mortality 1 h / % KD and Mortality 2 h / % KD and Mortality 3 h / % KD and Mortality 4 h / % KD and Mortality 6 h / % KD and Mortality 24 h: Table 115, EC formulation, continuous exposure. On the procedure: All surfaces were provided with talcum-coated glass rings (diameter 9.5 cm, height 5.5 cm) one day later.
The test insects were anesthetized with CO2, 20 individuals were placed onto the treated surfaces and the glass ring was covered with wire gauze ring. […]
Each test consisted of at least one replicate and any additional replicates are noted.
Test Insects: House flies (Musca domestica) of both sexes, susceptible strain WHO(N) and resistant strain Reichswald
Evaluation: Mortality was evaluated cumulatively at different times. […]
Test Insects: Culex quinquefasciatus (adults) (3 minutes exposure time according to USDA Petri Dish Method), Musca domestica (adults), susceptible and resistant strain, Blattella germanica (males), Cimex lectularius (adults) (all: continuous exposure time)
Application: The EC formulation (diluted with water 1:9) were applied as 0.85 ml solutions onto glazed tiles (15 cm×15 cm)

The mark [4] stands for this setting: Table 57, Argentine ant, continuous exposure.
[5] abbreviates: Table 46, Trial 1, fipronil/Compound A in acetone.
Setting [6] is: Table 47, Trial 2, fipronil/Compound A in acetone.
Where [7] appears, read: Table 49, fipronil/adjuvant in acetone.
The mark [8] stands for this setting: 2 hr, Table 46, Trial 1, fipronil/Compound A in acetone.
Where [9] appears, read: 2 hr, Table 49, fipronil/adjuvant in acetone.
The mark [10] stands for this setting: 4 hr, Table 46, Trial 1, fipronil/Compound A in acetone.
[11] abbreviates: 0.1% = 50 mg Bendiocarb/m^2 on glazed tiles.
The mark [12] stands for this setting: Table 27, aqueous deltamethrin/adjuvant.
The mark [13] stands for this setting: 0.02% = 10 mg Ethiprole/m^2 on glazed tiles.
[14] abbreviates: Table 4 (Ex. 1), continuous exposure.
Setting [15] is: Table 7 (Ex. 4), continuous exposure.
[16] abbreviates: Table 8 (Ex. 5), continuous exposure.
The mark [17] stands for this setting: Table 10 (Ex. 7), continuous exposure.
Where [18] appears, read: Table 12 (Ex. 9), continuous exposure.
[19] abbreviates: Table 14 (Ex. 11), continuous exposure.
The mark [20] stands for this setting: Table 16 (Ex. 13), continuous exposure.
Setting [21] is: Table 19 (Ex. 16), continuous exposure.
[22] abbreviates: Table 20 (Ex. 17), continuous exposure.
Where [23] appears, read: 0.1% = 50 mg imidacloprid/m^2 on glazed tiles.

With `CC[S+]([O-])c1c(C#N)nn(-c2c(Cl)cc(C(F)(F)F)cc2Cl)c1N` (stereo not drawn) [Ethiprole (1%)], in series [1] (setting [4]), the “Average % Mortality after 30 min” value was 0% and the “Average % Mortality after 60 min” value was found to be 0%. In addition, the “Average % Mortality after 45 min” value in series [1] (Table 57, Argentine ant, continuous exposure, 45 min) was found to be 0%. Further, the “Average % Mortality after 15 min” value in series [1] (Table 57, Argentine ant, continuous exposure, adjuvant = Compound A 1% + Compound B 0.5%) was determined as 0%.

Take `N#Cc1nn(-c2c(Cl)cc(C(F)(F)F)cc2Cl)c(N)c1[S+]([O-])C(F)(F)F` (stereo not drawn) [Fipronil (.001%)]: in series [2], the “Average % Knockdown & Mortality after 30 min” value was 0%, the “Average % Knockdown & Mortality after 60 min” value was found to be 0%, the “Average % Knockdown & Mortality after 2 hr” value is recorded as 0% and the “Average % Knockdown & Mortality after 3 hr” value is listed as 0%. Besides, the “Average % Knockdown & Mortality after 24 hr” value in series [2] is given as 2%. In series [1] (setting [5]), the “Average % Mortality after 5 min” value is listed as 0%, the “Average % Mortality after 15 min” value was 0%, the “Average % Mortality after 30 min” value stood at 0% and the “Average % Mortality after 60 min” value came out at 0%. In series [1] (setting [5]), the “Average % Mortality after 24 hr” value came out at 100%. Further, in series [1] (setting [6]), the “Average % Mortality after 5 min” value is reported as 0%, the “Average % Mortality after 15 min” value was found to be 0%, the “Average % Mortality after 30 min” value was found to be 0% and the “Average % Mortality after 60 min” value is on record as 0%. Besides, the “Average % Mortality after 24 hr” value in series [1] (setting [6]) was 100%. For the same molecule, in series [1] (setting [7]), the “Average % Mortality after 30 min” value amounted to 0%, the “Average % Mortality after 60 min” value is 0%, the “Average % Mortality after 3 hr” value was determined as 3% and the “Average % Mortality after 24 hr” value stood at 100%. Also, the “Average % Mortality after 2 hr” value in series [1] (setting [8]) is listed as 0%. The “Average % Mortality after 2 hr” value in series [1] (2 hr, Table 47, Trial 2, fipronil/Compound A in acetone) came to 0%. In addition, in series [1] (setting [9]), the “Average % Mortality after 2 hr” value is given as 0%. Further, in series [1] (setting [10]), the “Average % Mortality after 4 hr” value came out at 74%. Besides, the “Average % Mortality after 4 hr” value in series [1] (4 hr, Table 47, Trial 2, fipronil/Compound A in acetone) is 28%.

On to `N#Cc1nn(-c2c(Cl)cc(C(F)(F)F)cc2Cl)c(N)c1[S+]([O-])C(F)(F)F` (stereo not drawn) [Fipronil (.01%)], for which, in series [2], the “Average % Knockdown & Mortality after 30 min” value is listed as 0%, the “Average % Knockdown & Mortality after 60 min” value came to 0%, the “Average % Knockdown & Mortality after 2 hr” value is recorded as 0% and the “Average % Knockdown & Mortality after 3 hr” value turned out to be 0%. For the same molecule, in series [2], the “Average % Knockdown & Mortality after 24 hr” value was 48%. In addition, in series [1] (setting [5]), the “Average % Mortality after 5 min” value stood at 0%, the “Average % Mortality after 15 min” value is reported as 0%, the “Average % Mortality after 30 min” value was 0% and the “Average % Mortality after 60 min” value stood at 0%. Besides, the “Average % Mortality after 24 hr” value in series [1] (setting [5]) is reported as 100%. Further, in series [1] (setting [7]), the “Average % Mortality after 30 min” value stood at 0%, the “Average % Mortality after 60 min” value turned out to be 0%, the “Average % Mortality after 3 hr” value is on record as 0% and the “Average % Mortality after 24 hr” value is recorded as 100%. Further, the “Average % Mortality after 2 hr” value in series [1] (setting [8]) was 0%. Further, the “Average % Mortality after 2 hr” value in series [1] (setting [9]) is listed as 0%. The “Average % Mortality after 4 hr” value in series [1] (setting [10]) was 47%.

As for `CNC(=O)Oc1cccc2c1OC(C)(C)O2` [bendiocarb], in series [3] (setting [11]), the “% KD and Mortality 15′” value is given as 0%; the “% KD and Mortality 30′” value came to 0%; the “% KD and Mortality 1 h” value was 0%; the “% KD and Mortality 2 h” value amounted to 0%. Also, in series [3] (setting [11]), the “% KD and Mortality 3 h” value amounted to 0%; the “% KD and Mortality 4 h” value is 0%; the “% KD and Mortality 6 h” value amounted to 0%; the “% KD and Mortality 24 h” value is 5%.

With `CC1(C)[C@H](C(=O)O[C@H](C#N)c2cccc(Oc3ccccc3)c2)[C@@H]1C=C(Br)Br` [deltamethrin (1%)], the “Average % Mortality after 10 min” value in series [1] (10 min, Table 27, aqueous deltamethrin/adjuvant) is 9%. In addition, in series [1] (setting [12]), the “Average % Mortality after 15 min” value is on record as 33% and the “Average % Mortality after 30 min” value was found to be 82%. Further, in series [1] (20 min, Table 27, aqueous deltamethrin/adjuvant), the “Average % Mortality after 20 min” value is reported as 67%.

`CC1(C)[C@H](C(=O)O[C@H](C#N)c2cccc(Oc3ccccc3)c2)[C@@H]1C=C(Br)Br` [deltamethrin]: the “% of the flies killed after 24 h” value in series [3] (0.02% deltamethrin in acetone on glazed tiles, with or without 1% Compound A + 0.5% Compound B) is 7%.

`CC[S+]([O-])c1c(C#N)nn(-c2c(Cl)cc(C(F)(F)F)cc2Cl)c1N` (stereo not drawn) [ethiprole]: in series [3] (setting [13]), the “% KD and Mortality 15′” value was found to be 0%; the “% KD and Mortality 30′” value is given as 0%; the “% KD and Mortality 1 h” value is 0%; the “% KD and Mortality 2 h” value is recorded as 0%. Besides, in series [3] (setting [13]), the “% KD and Mortality 3 h” value is 0%; the “% KD and Mortality 4 h” value amounted to 10%; the “% KD and Mortality 6 h” value was 15%; the “% KD and Mortality 24 h” value was determined as 60%.

As for `O=[N+]([O-])NC1=NCCN1Cc1ccc(Cl)nc1` [imidacloprid], the “Average % Knockdown & Mortality after 2 hr” value in series [1] (2 hr, Table 22, imidacloprid/tritylchloride in acetone, continuous exposure) was 0%. In addition, the “Average % Knockdown & Mortality after 2 hr” value in series [1] (2 hr, Table 25, imidacloprid/dibutyl sebacate (DBS) in acetone) is 0%. Further, in series [1] (4 hr, Table 25, imidacloprid/dibutyl sebacate (DBS) in acetone), the “Average % Knockdown & Mortality after 4 hr” value was determined as 0%. Also, the “Average % Knockdown & Mortality after 5 hr” value in series [1] (5 hr, Table 22, imidacloprid/tritylchloride in acetone, continuous exposure) is reported as 4%. In series [1] (setting [14]), the “Average % Knockdown & Mortality after 3 hr” value came to 0% and the “Average % Knockdown & Mortality after 7 hr” value was 0%. Moreover, in series [1] (setting [15]), the “Average % Knockdown & Mortality after 3 hr” value came to 3% and the “Average % Knockdown & Mortality after 7 hr” value is listed as 3%. Moreover, in series [1] (setting [16]), the “Average % Knockdown & Mortality after 15 min” value is 0% and the “Average % Knockdown & Mortality after 4 hr” value came to 7%. In addition, in series [1] (setting [17]), the “Average % Knockdown & Mortality after 15 min” value stood at 0% and the “Average % Knockdown & Mortality after 4 hr” value came out at 0%. Further, in series [1] (setting [18]), the “Average % Knockdown & Mortality after 3 hr” value amounted to 0% and the “Average % Knockdown & Mortality after 7 hr” value is 0%. In addition, in series [1] (setting [19]), the “Average % Knockdown & Mortality after 2 hr” value is recorded as 0% and the “Average % Knockdown & Mortality after 4 hr” value was determined as 0%. In series [1] (setting [20]), the “Average % Knockdown & Mortality after 2 hr” value is on record as 14% and the “Average % Knockdown & Mortality after 18 hr” value came to 17%. Besides, in series [1] (setting [21]), the “Average % Knockdown & Mortality after 4 hr” value is recorded as 0% and the “Average % Knockdown & Mortality after 6 hr” value was 7%. In series [1] (setting [22]), the “Average % Knockdown & Mortality after 2 hr” value worked out at 0% and the “Average % Knockdown & Mortality after 4 hr” value is given as 7%. Also, in series [3] (setting [23]), the “% KD and Mortality 15′” value is 5%; the “% KD and Mortality 30′” value is 5%; the “% KD and Mortality 1 h” value came out at 5%; the “% KD and Mortality 2 h” value was determined as 5%. Also, in series [3] (setting [23]), the “% KD and Mortality 3 h” value is on record as 5%; the “% KD and Mortality 4 h” value stood at 5%; the “% KD and Mortality 6 h” value came to 5%; the “% KD and Mortality 24 h” value turned out to be 20%.
